Results reported in patent publication US4952591A, “Anti-ulcer urea derivatives” (Kyorin Pharmaceutical Co., Ltd., priority 1987, dated 1990).

Experiments:
[1] = tested on: Gastric secretion (acid output); experiment: Gastric antisecretion (Acute fistula method, histamine-stimulated, pylorus-ligated rats); type: in vivo, Male Donryu rats; settings: i.d., histamine 10 mg/kg i.m.
Description: Male Donryu rats, weighing about 200 g, were fasted for 24 hours before the experiment. […] The gastric cannula was implanted in the forestomach (Acute fistula method). Gastric secretion from cannula was collected into test tubes every one hour and the acid output was titrated. Histamine (10 mg/kg) was intramuscularly given after the first collection of gastric juice. Drugs were intraduodenally given after the second collection of the gastric juice.

Histamine H2-receptor = biological target: T1, Histamine H2-receptor (Cavia porcellus, UniProt P47747); experiment: Histamine H2-receptor antagonism (isolated right atrium, positive chronotropic effect of histamine); set-up: species or system Male Hartley guinea-pigs; settings: guinea-pig right atrium, 32±1° C., drugs added 5 minutes before histamine; read-out: pA2 (converted)
T1 construct: The right atrium was dissected and suspended at 0.5 g tension in a 10 ml organ bath; from tissue; host or cells: isolated right atrium of male Hartley guinea-pigs
T1 sequence (P47747 whole entry): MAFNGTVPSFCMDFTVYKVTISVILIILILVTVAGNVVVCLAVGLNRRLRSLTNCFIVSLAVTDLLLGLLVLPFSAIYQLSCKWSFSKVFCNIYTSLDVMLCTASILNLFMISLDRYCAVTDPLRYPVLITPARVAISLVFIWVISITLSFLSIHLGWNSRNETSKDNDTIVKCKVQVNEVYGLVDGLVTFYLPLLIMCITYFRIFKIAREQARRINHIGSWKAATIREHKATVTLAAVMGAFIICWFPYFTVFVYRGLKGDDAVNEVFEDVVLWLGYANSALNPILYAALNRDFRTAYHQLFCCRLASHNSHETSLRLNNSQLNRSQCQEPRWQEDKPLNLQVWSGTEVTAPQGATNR
Description: Male Hartley guinea-pigs, weighing between 300 and 400 g, were used in the experiment. The right atrium was dissected and suspended at 0.5 g tension in a 10 ml organ bath containing Krebs-Henseleit's solution, kept at 32±1° C. and bubbled with the gas mixture (95 % O2 and 5 % CO2). Contractions were recorded with a force-displacement transducer through a strain gange. […] Drugs were added into the organ bath 5 minutes before histamine treatment.

[2] = tested on: 0.6 N HCl-induced gastric lesions; experiment: Gastric cytoprotection (0.6 N HCl-induced gastric lesions); type: in vivo, Male Donryu rats; settings: p.o., an hour before 0.6 N HCl, lesion length
Description: Male Donryu rats, weighing about 200 g, were deprived of food and water for 24 hours. One ml of 0.6N HCl solution was given orally and the animals were killed an hour later. […] The length (mm) of each gastric lesion was measured under a dissecting microscope, summed, and used as an index for evaluation. Drugs were orally given an hour before 0.6 N HCl solution treatment.

Kb (Histamine H2-receptor) [nM]	Structure (SMILES)	Inhibition (%) ([1]; Dose 25 mg/kg)	Inhibition (%) ([2]; Dose 50 mg/kg)	Inhibition (%) ([1]; Dose 5 mg/kg)	Inhibition (%) ([2]; Dose 6 mg/kg)	Inhibition (%) ([2]; Dose 25 mg/kg)	also measured
251	CCOc1ccc(NC(=O)NCCCOc2cccc(CN3CCCCC3)c2)cc1 [Example 51, N-(4-Ethoxyphenyl)-N'-[3-(3-piperidinomethylphenoxy)propyl]urea]	97.1	63.4	–	–	–	Inhibition (%) ([1]; Dose 1 mg/kg): 29.0%; Inhibition (%) ([1]; Dose 6 mg/kg): 52.7%
27.5	CC(C)NC(=O)NCCCOc1cccc(CN2CCCCC2)c1 [Example 54]	–	70.1	68.2	36.1	73.0	Inhibition (%) ([1]; Dose 2 mg/kg): 16.1%; Inhibition (%) ([1]; Dose 10 mg/kg): 78.8%

Continued, compound first:

Structure (SMILES)	Kb (Histamine H2-receptor) [nM]	Inhibition (%) ([1]; Dose 25 mg/kg)	Inhibition (%) ([2]; Dose 50 mg/kg)	Inhibition (%) ([1]; Dose 5 mg/kg)	Inhibition (%) ([2]; Dose 6 mg/kg)	Inhibition (%) ([2]; Dose 25 mg/kg)	also measured
CCNC(=O)NCCCOc1cccc(CN2CCCCC2)c1 [Example 16, N-Ethyl-N'-[3-(3-piperidinomethylphenoxy)propyl]urea]	66.1	–	89.4	49.5	52.6	78.0	Inhibition (%) ([1]; Dose 10 mg/kg): 77.2%
CCCNC(=O)NCCCOc1cccc(CN2CCCCC2)c1 [Example 8]	41.7	–	–	–	55.4	–	Inhibition (%) ([1]; Dose 1 mg/kg): 49.5%; Inhibition (%) ([1]; Dose 3 mg/kg): 77.5%; Inhibition (%) ([1]; Dose 6 mg/kg): 81.3%; Inhibition (%) ([2]; Dose 1 mg/kg): 26.4%; Inhibition (%) ([2]; Dose 16 mg/kg): 67.4%
CNC(=O)NC/C=C\COc1cccc(CN2CCCCC2)c1 [Example 29]	35.5	–	–	80.8	–	73.8	Inhibition (%) ([1]; Dose 3 mg/kg): 39.1%; Inhibition (%) ([2]; Dose 5 mg/kg): 49.3%
CN/C(=N/CCSCc1nc[nH]c1C)NC#N [Cimetidine, reference compound]	–	80.0	–	–	–	–	Inhibition (%) ([1]; Dose 12.5 mg/kg): 51.9%; Inhibition (%) ([1]; Dose 50 mg/kg): 100.0%; Inhibition (%) ([2]; Dose 100 mg/kg): 22.0%
COc1ccc(NC(=O)NCCCOc2cccc(CN3CCCCC3)c2)cc1 [Example 1, N-(4-Methoxyphenyl)-N'-[3-(3-piperidinomethylphenoxy)propyl]urea]	263	98.5	45.1	–	–	30.1	Inhibition (%) ([1]; Dose 12.5 mg/kg): 70.7%; Inhibition (%) ([2]; Dose 100 mg/kg): 67.4%
